For one data set, the target named is T1, V30M-TTR (Homo sapiens, UniProt P02766, V50M).
T1 construct: composed of 127-residue β-sheet-rich subunits; made in house
Nature of the data set: Acid-mediated V30M-TTR fibril formation assay (turbidity at 400 nm). Format: biochemical. Particulars: pH 4.4, 72 hours, 37° C. On the procedure:
Compounds (5 μL of 1.44 mM solution in DMSO) were added to 495 μL of TTR (7.2 μM, in 10 mM sodium phosphate, 100 mM KCl, 1 mM EDTA, pH 7.0). The mixtures were vortexed and incubated (maintained) for 18 hours at 25° C. […] The solutions were vortexed to evenly distribute any precipitate, and turbidity was measured at 400 nm using a Hewlett Packard model 8453 UV-VIS Spectrophotometer.

In data set [1] the target is T2, WT-TTR (Homo sapiens, UniProt P02766).
T2 construct: composed of 127-residue β-sheet-rich subunits; made in house; host or cells: E. coli
Nature of the data set: Acid-mediated WT-TTR fibril formation assay (turbidity at 400 nm). The class given is biochemical. To be noted: for IC50: % fibril formation after 72 hours, read-out: IC50 (apparent), inhibition of WT-TTR amyloidogenesis. On the procedure: The mixtures were vortexed and incubated (maintained) for 18 hours at 25° C.

The target in data set [2] is T2, WT-TTR. The experiment in a line: Selectivity of A2 TTR conjugation in HeLa cell lysate (RP-HPLC, LC-MS). Format: binding. Particulars: WT-TTR 5 μM, A2 15 μM, maximum of 50%. On the procedure: The ability of A2 to form a chemoselective amide bond with the K15 residue of TTR in cell lysate was assessed by RP-HPLC and LC-MS analysis. […] Immunoisolation of TTR affords the expected mass resulting from conjugate formation (14,185 m/z [M+H] for benzoylation by A2).

Data set [3] is described as follows: Photoisomerization upon irradiation (312 nm, 10 seconds). The class given is physicochemical. On the procedure:
Although TTR can bind to small molecules composed of two aromatic rings when the tethered rings are up to 40° out of plane {based on TTR-stilbene crystal structures [Klabunde et al., Nat. Struct. Biol. 2000, 7, 312-321; Connelly et al., Curr. Opin. Struc. Biol. 2010, 20, 54-62; Johnson et al., J. Med. Chem. 2008, 51, 6348-6358; Choi et al., J. Am. Chem. Soc. 2010, 132, 1359-1370; Choi et al., Nat. Chem. Biol. 2010, 6, 133-139; Baures et al., Bioorg. Med. Chem. 1998, 6, 1389-1401; and Baures et al., Bioorg. Med. Chem. 1999, 7, 1339-1347]}, it would be energetically unfavorable to bind the excited singlet state in a conformation where the two aryl rings are oriented perpendicular to one another. Thus, we propose that the increase in fluorescence quantum yield of B2 from 0.09 in buffer to 0.55 in complex with TTR results from the resculpted excited singlet state energy surface of the stilbene in complex with TTR, such that the trans-conformer is the only state of relatively low potential energy [Gorner, H.; Kuhn, H. J. Adv, Photochem. 1995, 19, 1-117; Malkin et al., J. Phys. Chem. 1964, 68, 1153-1163; Saltiel, J. J. Am. Chem. Soc. 1967, 89, 1036-1037; Saltiel et al., J. Am. Chem. Soc. 1972, 94, 6445-6457; Saltiel et al., J. Am. Chem. Soc. 1979, 101, 2982-2996; and Saltiel et al., J. Am. Chem. Soc. 1968, 90, 4759-4760] inhibiting photoisomerization-based relaxation of B2. That B2 binding to TTR inhibits B2 photoisomerization is consistent with the observation that the irradiation of B2 in buffer (Life Technologies, TFX-35M, 312 nm) for 10 seconds affords 60% of the cis isomer, along with other minor photoreaction products, whereas irradiation of B2 bound to TTR yields only 20% cis isomer.
It appears that the increase in fluorescence quantum yield of A2 from 0.00 in buffer to 0.27 in the TTR-(stilbene)n≦2 conjugate is only partly explained by the mechanism proposed for B2 [Gorner, H.; Kuhn, H. J. Adv, Photochem. 1995, 19, 1-117; Malkin et al., J. Phys. Chem. 1964, 68, 1153-1163; Saltiel, J. J. Am. Chem. Soc. 1967, 89, 1036-1037; Saltiel et al., J. Am. Chem. Soc. […]

Data set [4] is described as follows: Quantum yield measurement in buffer. Format: physicochemical. On the procedure: The covalent TTR modifier A1 or A2 or the non-covalent TTR ligand B2 (15 μL of a 1.44 mM solution in DMSO, final concentration: 7.2 μM) was added to 3 mL of a solution of WT-TTR homotetramer (0.2 mg/mL, 3.6 μM) in 10 mM phosphate, 100 mM KCl and 1 mM EDTA (pH 7.0 phosphate buffer). The samples were vortexed, and incubated for 18 hours at 25° C. Quantum yields were measured by following the instructions at the web site: jobinyvon.com/usadivisions/Fluorescence/applications/quantumyieldstrad.pdf. Quinine bisulfate in 0.5 M H2SO4 was used as a reference for comparison (Φf=0.546). [Crosby et al., J. Phys. Chem. 1971, 75, 991-1024.]

Another data set concerns human fibroblasts. Nature of the data set: A2 treatment of human fibroblasts (no TTR). Particulars: A2 10 μM, 30 minutes. The class given is cell-based. The source says: The confocal fluorescence observations are consistent with substantial evidence that the liver secretes the vast majority, if not all, of the TTR into the human bloodstream [Felding et al., Biochimica et Biophysica Acta 1982, 716, 446-9]. That TTR could be visualized in the secretory pathway addresses the sensitivity of A2-derived TTR fluorescent conjugate-based detection [Sekijima et al., Cell 2005, 121, 73-85].
Huh-7 cells or Gaucher's patient-derived fibroblasts (Coriell Cell Repositories, GM08760) were maintained in DMEM containing 10% FBS at 37° C. under 5% CO2. The cells were plated the day before compound treatment and imaging. Cells were washed twice with PBS and then treated with A2 (final concentration: 10 μM) for 30 minutes at 37° C. in a CO2 incubator. After two washes, cells were fixed at 25° C. for 15 minutes with 3.7% paraformaldehyde (w/v) in PBS and microscopic images were acquired as described above.

Read-outs that look alike come from different tables or passages of the source.

As usually defined, the IC50 is the point on the concentration scale where inhibition reaches its midpoint.

For `Cc1cc(/C=C/c2cccc(C(=O)Sc3ccccc3)c2)cc(C)c1O` [Compound 2, (E)-S-phenyl 3-(4-hydroxy-3,5-dimethylstyryl)benzothioate], the “% Fibril Formation 7.2 μM (V30M-TTR)” value on V30M-TTR (compound 7.2 μM) is recorded as 3%. Moreover, on V30M-TTR (compound […]), the “% Fibril Formation […] (V30M-TTR)” value is 34%. The concentration for half-maximal inhibition (IC50) on WT-TTR [1] (WT-TTR 3.6 μM) is 1960 to 2260 nM; on WT-TTR [1] (WT-TTR […]), 2000 nM. At WT-TTR [1] (WT-TTR […], compound 7.2 μM, pH 4.4, 72 hours, 37° C.), the “% Fibril Formation 7.2 μM (WT-TTR)” value is on record as 2%. Besides, the “% Fibril Formation […] (WT-TTR)” value at WT-TTR [1] (WT-TTR […], compound […], pH 4.4, 72 hours, 37° C.) was determined as 16%.
As for `Cc1cc(/C=C/c2cc(C(=O)Sc3ccc(F)cc3)cc(N(C)C)c2)cc(C)c1O` [Compound A2, (E)-S-4-fluorophenyl 3-(dimethylamino)-5-(4-hydroxy-3,5-dimethylstyryl)-benzothioate], the “% of TTR subunits modified in HeLa cell lysate” value on WT-TTR [2] is 49%. In addition, in data set [3], the “photoisomerization upon irradiation in buffer (in words)” value was “does not readily form the cis isomer”. The “fluorescence quantum yield in buffer” value in data set [4] was 0.00. The “fluorescence in human fibroblasts” value with human fibroblasts was “no significant fluorescence”.

The values above are taken from patent publication US8703815B2, “Small molecules that covalently modify transthyretin” (The Scripps Research Institute, priority 2009, dated 2014).
